From US20060069132A1, “Azolecarboxamide herbicides” (priority 2004, published 2006)

Experiments:
velvetleaf = assay: Test B pre-/postemergence herbicide test; format: in vivo, Abutilon theophrasti; details: for Velvetleaf plant response rating (0 to 100 scale) / Plant response rating, Velvetleaf: 0 = no effect, 100 = complete control, preemergence; for Velvetleaf plant response rating: postemergence
Outline: (§1)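 Formulation: non-phytotoxic solvent mix with surfactant. Timing: preemergence on seed and postemergence on 2–18 cm plants, applied concurrently. Readout after 13–15 d greenhouse: visual 0–100 control rating against controls.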

Surinam grass = assay: Test B pre-/postemergence herbicide test; format: in vivo, Urochloa decumbens; details: for Surinam Grass plant response rating (0 to 100 scale) / Plant response rating, Surinam Grass: 0 = no effect, 100 = complete control, preemergence; for Surinam Grass plant response rating: postemergence
Outline: as §1

lambsquarters = assay: Test B pre-/postemergence herbicide test; format: in vivo, Chenopodium album; details: for Plant response rating, Lambsquarters: 0 = no effect, 100 = complete control, preemergence; for Lambsquarters plant response rating: postemergence
Outline: as §1

[1] = tested on: small flower umbrella sedge; assay: Test B flooded paddy test; format: in vivo, Cyperus difformis; details: 1000 g ai/ha, scale 0 to 100 (0 no effect, 100 complete control)
Outline: (§2)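 Read-out: visual comparison with controls, scored 0 to 100, where 100 means complete control and 0 no effect. Formulated chemicals were applied postemergence to plants 2–18 cm tall (1- to 4-leaf), or to flooded-paddy plants at the 2-leaf stage, then held 13 to 15 days under glass.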

ducksalad = assay: Test B flooded paddy test; format: in vivo, Heteranthera limosa; details: 1000 g ai/ha, scale 0 to 100 (0 no effect, 100 complete control)
Outline: as §2

cocklebur = assay: Test B pre-/postemergence herbicide test; format: in vivo, Xanthium strumarium; details: for Cocklebur plant response rating (0 to 100 scale) / Plant response rating, Cocklebur: 0 = no effect, 100 = complete control, preemergence; for Cocklebur plant response rating: postemergence
Outline: (§3)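 Pre: seeds sown, then sprayed. Post: 1–4-leaf plants (2–18 cm) sprayed at the same time. Paddy: flooded, treated at 2-leaf stage. Formulation: non-phytotoxic solvent with surfactant. Greenhouse 13–15 days; visual 0–100 score relative to controls.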

pigweed = assay: Test B pre-/postemergence herbicide test; format: in vivo, Amaranthus retroflexus; details: for Pigweed plant response rating (0 to 100 scale) / Plant response rating, Pigweed: 0 = no effect, 100 = complete control, preemergence; for Pigweed plant response rating: postemergence
Outline: as §1

rice [2] = assay: Test B flooded paddy test; format: in vivo, Oryza sativa; details: 1000 g ai/ha, scale 0 to 100 (0 no effect, 100 complete control)
Outline: (§4)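 Scale 0–100: zero equals no visible effect, 100 complete control, judged by eye relative to controls. Timing: 13 to 15 days in greenhouse post-treatment. Growth stage at spraying: two leaves (paddy) or one to four leaves, 2–18 cm (postemergence).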

wild oat = assay: Test B postemergence herbicide test; format: in vivo, Avena fatua; details: postemergence
Outline: as §4

giant foxtail = assay: Test B pre-/postemergence herbicide test; format: in vivo, Setaria faberi; details: for Foxtail, Giant plant response rating (0 to 100 scale) / Plant response rating, Foxtail, Giant: 0 = no effect, 100 = complete control, preemergence; for Foxtail, Giant plant response rating: postemergence
Outline: as §1

barnyardgrass [3] = assay: Test B pre-/postemergence herbicide test; format: in vivo, Echinochloa crus-galli; details: for Barnyardgrass plant response rating (0 to 100 scale) / Plant response rating, Barnyardgrass: 0 = no effect, 100 = complete control, preemergence; for Barnyardgrass plant response rating: postemergence
Outline: as §3

rice [4] = assay: Test B pre-/postemergence herbicide test; format: in vivo, Oryza sativa; details: 0 = no effect, 100 = complete control, preemergence; for Rice plant response rating (0 to 100 scale): 125 g ai/ha; for Plant response rating, Rice: 500 g ai/ha, visual rating
Outline: as §1

wheat = assay: Test B postemergence herbicide test; format: in vivo, Triticum aestivum; parameters: key to Wheat plant response rating: 0 = no effect, 100 = complete control; details: postemergence
Outline: as §4

corn = assay: Test B pre-/postemergence herbicide test; format: in vivo, Zea mays; details: for Corn plant response rating (0 to 100 scale) / Plant response rating, Corn: 0 = no effect, 100 = complete control, preemergence; for Corn plant response rating: postemergence
Outline: as §1

large crabgrass = assay: Test B pre-/postemergence herbicide test; format: in vivo, Digitaria sanguinalis; details: for Crabgrass, Large plant response rating: postemergence
Outline: as §1

barnyardgrass [5] = assay: Test B flooded paddy test; format: in vivo, Echinochloa crus-galli; details: 1000 g ai/ha, scale 0 to 100 (0 no effect, 100 complete control)
Outline: as §2

blackgrass = assay: Test B postemergence herbicide test; format: in vivo, Alopecurus myosuroides; details: postemergence
Outline: as §2

morningglory = assay: Test B pre-/postemergence herbicide test; format: in vivo, Ipomoea coccinea; details: for Morningglory plant response rating (0 to 100 scale) / Plant response rating, Morningglory: 0 = no effect, 100 = complete control, preemergence; for Morningglory plant response rating: postemergence
Outline: as §3

[6] = 125 g ai/ha, visual rating, scale 0 (no effect) to 100 (complete control)
[7] = 500 g ai/ha, scale 0 to 100, 0 is no effect, 100 is complete control
[8] = 500 g ai/ha, visual rating, scale 0 (no effect) to 100 (complete control)

## CCn1nc(C(C)(C)C)cc1C(=O)Nc1nc(C(=O)OC)ccc1OC [Compound 265]
velvetleaf; 125 g ai/ha
  Velvetleaf plant response rating (0 to 100 scale): 0
velvetleaf; 500 g ai/ha, visual rating
  Plant response rating, Velvetleaf: 10
velvetleaf; [6]
  Velvetleaf plant response rating: 0
velvetleaf; [7]
  Velvetleaf plant response rating: 10
Surinam grass; 125 g ai/ha
  Surinam Grass plant response rating (0 to 100 scale): 0
Surinam grass; 500 g ai/ha, visual rating
  Plant response rating, Surinam Grass: 40
Surinam grass; [6]
  Surinam Grass plant response rating: 0
Surinam grass; [7]
  Surinam Grass plant response rating: 0
lambsquarters; 500 g ai/ha, visual rating
  Plant response rating, Lambsquarters: 0
lambsquarters; [6]
  Lambsquarters plant response rating: 0
lambsquarters; [7]
  Lambsquarters plant response rating: 0
[1]
  Sedge, Umbrella plant response rating: 0
ducksalad
  Ducksalad plant response rating: 0
cocklebur; 125 g ai/ha
  Cocklebur plant response rating (0 to 100 scale): 0
cocklebur; 500 g ai/ha, visual rating
  Plant response rating, Cocklebur: 0
cocklebur; [6]
  Cocklebur plant response rating: 0
cocklebur; [8]
  Cocklebur plant response rating: 0
pigweed; 125 g ai/ha
  Pigweed plant response rating (0 to 100 scale): 0
pigweed; 500 g ai/ha, visual rating
  Plant response rating, Pigweed: 0
pigweed; [6]
  Pigweed plant response rating: 0
pigweed; [7]
  Pigweed plant response rating: 20
Rice [2]
  Rice plant response rating: 0
Wild oat; [6]
  Oat, Wild plant response rating: 0
Wild oat; [7]
  Oat, Wild plant response rating: 10
Giant foxtail; 125 g ai/ha
  Foxtail, Giant plant response rating (0 to 100 scale): 0
Giant foxtail; 500 g ai/ha, visual rating
  Plant response rating, Foxtail, Giant: 50
Giant foxtail; [6]
  Foxtail, Giant plant response rating: 0
Giant foxtail; [7]
  Foxtail, Giant plant response rating: 0
Barnyardgrass [3]; 125 g ai/ha
  Barnyardgrass plant response rating (0 to 100 scale): 0
Barnyardgrass [3]; 500 g ai/ha, visual rating
  Plant response rating, Barnyardgrass: 0
Barnyardgrass [3]; [6]
  Barnyardgrass plant response rating: 0
Barnyardgrass [3]; [8]
  Barnyardgrass plant response rating: 0
Rice [4]
  Rice plant response rating (0 to 100 scale): 0
  Plant response rating, Rice: 0
wheat; [6]
  Wheat plant response rating: 0
wheat; [7]
  Wheat plant response rating: 10
corn; 125 g ai/ha
  Corn plant response rating (0 to 100 scale): 0
corn; 500 g ai/ha, visual rating
  Plant response rating, Corn: 0
corn; [6]
  Corn plant response rating: 0
corn; [7]
  Corn plant response rating: 10
Large crabgrass; [6]
  Crabgrass, Large plant response rating: 0
Large crabgrass; [7]
  Crabgrass, Large plant response rating: 0
Barnyardgrass [5]
  Barnyardgrass plant response rating: 0
blackgrass; [6]
  Blackgrass plant response rating: 0
blackgrass; [8]
  Blackgrass plant response rating: 10
morningglory; 125 g ai/ha
  Morningglory plant response rating (0 to 100 scale): 0
morningglory; 500 g ai/ha, visual rating
  Plant response rating, Morningglory: 0
morningglory; [6]
  Morningglory plant response rating: 0
morningglory; [7]
  Morningglory plant response rating: 10

## CCNC(=O)c1ccc(F)c(NC(=O)c2c(F)c(C(C)(C)C)nn2CC)c1 [Compound 275]
velvetleaf; 125 g ai/ha
  Velvetleaf plant response rating (0 to 100 scale): 0
velvetleaf; 500 g ai/ha, visual rating
  Plant response rating, Velvetleaf: 0
velvetleaf; [6]
  Velvetleaf plant response rating: 0
velvetleaf; [7]
  Velvetleaf plant response rating: 30
Surinam grass; 125 g ai/ha
  Surinam Grass plant response rating (0 to 100 scale): 0
Surinam grass; 500 g ai/ha, visual rating
  Plant response rating, Surinam Grass: 10
Surinam grass; [6]
  Surinam Grass plant response rating: 10
Surinam grass; [7]
  Surinam Grass plant response rating: 30
lambsquarters; 500 g ai/ha, visual rating
  Plant response rating, Lambsquarters: 100
lambsquarters; [6]
  Lambsquarters plant response rating: 50
lambsquarters; [7]
  Lambsquarters plant response rating: 70
[1]
  Sedge, Umbrella plant response rating: 80
ducksalad
  Ducksalad plant response rating: 60
cocklebur; 125 g ai/ha
  Cocklebur plant response rating (0 to 100 scale): 0
cocklebur; 500 g ai/ha, visual rating
  Plant response rating, Cocklebur: 0
cocklebur; [6]
  Cocklebur plant response rating: 0
cocklebur; [7]
  Cocklebur plant response rating: 10
pigweed; 125 g ai/ha
  Pigweed plant response rating (0 to 100 scale): 0
pigweed; 500 g ai/ha, visual rating
  Plant response rating, Pigweed: 40
pigweed; [6]
  Pigweed plant response rating: 60
pigweed; [7]
  Pigweed plant response rating: 70
Rice [2]
  Rice plant response rating: 20
Wild oat; [6]
  Oat, Wild plant response rating: 30
Wild oat; [7]
  Oat, Wild plant response rating: 40
Giant foxtail; 125 g ai/ha
  Foxtail, Giant plant response rating (0 to 100 scale): 0
Giant foxtail; 500 g ai/ha, visual rating
  Plant response rating, Foxtail, Giant: 20
Giant foxtail; [6]
  Foxtail, Giant plant response rating: 0
Giant foxtail; [7]
  Foxtail, Giant plant response rating: 0
Barnyardgrass [3]; 125 g ai/ha
  Barnyardgrass plant response rating (0 to 100 scale): 0
Barnyardgrass [3]; 500 g ai/ha, visual rating
  Plant response rating, Barnyardgrass: 60
Barnyardgrass [3]; [6]
  Barnyardgrass plant response rating: 0
Barnyardgrass [3]; [7]
  Barnyardgrass plant response rating: 20
Rice [4]
  Rice plant response rating (0 to 100 scale): 0
  Plant response rating, Rice: 60
wheat; [6]
  Wheat plant response rating: 20
wheat; [7]
  Wheat plant response rating: 30
corn; 125 g ai/ha
  Corn plant response rating (0 to 100 scale): 0
corn; 500 g ai/ha, visual rating
  Plant response rating, Corn: 20
corn; [6]
  Corn plant response rating: 0
corn; [7]
  Corn plant response rating: 0
Large crabgrass; 125 g ai/ha, 0 = no effect, 100 = complete control, preemergence
  Crabgrass, Large plant response rating (0 to 100 scale): 0
Large crabgrass; 500 g ai/ha, visual rating, 0 = no effect, 100 = complete control, preemergence
  Plant response rating, Crabgrass, Large: 0
Large crabgrass; [6]
  Crabgrass, Large plant response rating: 0
Large crabgrass; [7]
  Crabgrass, Large plant response rating: 10
Barnyardgrass [5]
  Barnyardgrass plant response rating: 20
blackgrass; [6]
  Blackgrass plant response rating: 40
blackgrass; [7]
  Blackgrass plant response rating: 40
morningglory; 125 g ai/ha
  Morningglory plant response rating (0 to 100 scale): 0
morningglory; 500 g ai/ha, visual rating
  Plant response rating, Morningglory: 40
morningglory; [6]
  Morningglory plant response rating: 0
morningglory; [7]
  Morningglory plant response rating: 10
